In ChEMBL document CHEMBL4715742, “Design, synthesis and cytotoxic activities of novel 2,5-diketopiperazine derivatives” (Eur J Med Chem, 2016):

Key:
Type in all cases: functional, cell-based
[1] = system: U-937; test: Cytotoxicity against human U-937 cells assessed as reduction in cell viability measured after 72 hrs by CCK8 assay
[2] = system: K562; test: Cytotoxicity against human K562 cells assessed as reduction in cell viability measured after 72 hrs by CCK8 assay
[3] = system: HL-60; test: Cytotoxicity against human HL-60 cells assessed as reduction in cell viability measured after 72 hrs by CCK8 assay
[4] = system: A549; test: Cytotoxicity against human A549 cells assessed as reduction in cell viability measured after 72 hrs by CCK8 assay
[5] = system: MCF7; test: Cytotoxicity against human MCF7 cells assessed as reduction in cell viability measured after 72 hrs by CCK8 assay
[6] = system: HeLa; test: Cytotoxicity against human HeLa cells assessed as reduction in cell viability measured after 72 hrs by CCK8 assay
[7] = system: DU-145; test: Cytotoxicity against human DU-145 cells assessed as reduction in cell viability measured after 72 hrs by CCK8 assay
[8] = system: HT-29; test: Cytotoxicity against human HT-29 cells assessed as reduction in cell viability measured after 72 hrs by CCK8 assay
[9] = Homo sapiens, U-937, 72 h, read-out: IC50
[10] = Homo sapiens, K562, 72 h, read-out: IC50
[11] = Homo sapiens, HL-60, 72 h, read-out: IC50
[12] = Homo sapiens, A549, 72 h, read-out: IC50
[13] = Homo sapiens, MCF7, 72 h, read-out: IC50
[14] = Homo sapiens, HeLa, 72 h, read-out: IC50
[15] = Homo sapiens, DU-145, 72 h, read-out: IC50
[16] = Homo sapiens, HT-29, 72 h, read-out: IC50

| Structure (SMILES) | IC50 ([1]; u-937) | IC50 ([2]; k562) | IC50 ([3]; hl-60) | IC50 ([4]; a549) | IC50 ([5]; mcf7) | IC50 ([6]; hela) | IC50 ([7]; du-145) | IC50 ([8]; ht-29) | IC50 [1, 9] | IC50 [2, 10] | IC50 [3, 11] | IC50 [4, 12] | IC50 [5, 13] | IC50 [6, 14] | IC50 [7, 15] | IC50 [8, 16] |
| --- | --- | --- | --- | --- | --- | --- | --- | --- | --- | --- | --- | --- | --- | --- | --- | --- |
| C=CCn1c(=O)/c(=C/CCCCCCCCCCCCCCC)[nH]c(=O)/c1=C/c1ccc(OC)cc1 | Not Active | Not Active | Not Active | Not Active | Not Active | Not Active | Not Active | Not Active | – | – | – | – | – | – | – | – |
| C=CCn1c(=O)/c(=C/CCCCCCCCCCCCCCC)[nH]c(=O)/c1=C/c1ccccc1OC | Not Active | Not Active | Not Active | Not Active | Not Active | Not Active | Not Active | Not Active | – | – | – | – | – | – | – | – |
| C=CCn1c(=O)/c(=C/CCCC)[nH]c(=O)/c1=C/c1cccc(OC)c1 | Not Active | Not Active | Not Active | Not Active | Not Active | Not Active | Not Active | Not Active | – | – | – | – | – | – | – | – |
| C=CCn1c(=O)/c(=C/CCCCCCCCCC)[nH]c(=O)/c1=C/c1cccc(OC)c1 | Not Active | Not Active | Not Active | Not Active | Not Active | Not Active | Not Active | Not Active | – | – | – | – | – | – | – | – |
| C=CCn1c(=O)/c(=C/CCC)[nH]c(=O)/c1=C/c1ccc(OC)cc1 | – | – | – | – | – | – | – | – | 2.2 µM | 2.9 µM | 6.2 µM | 12.3 µM | 9.3 µM | 7.1 µM | 13.1 µM | 8.3 µM |
| Cn1c(=O)/c(=C/c2ccccc2)[nH]c(=O)/c1=C/c1ccccc1 | – | – | Not Active | – | – | – | – | – | 1.4 µM | 2.9 µM | – | 7.8 µM | 5.1 µM | 4.9 µM | 9.4 µM | 6.5 µM |
| C=CCn1c(=O)/c(=C/CCCCCCCCCCC)[nH]c(=O)/c1=C/c1ccccc1OC | Not Active | Not Active | Not Active | Not Active | Not Active | Not Active | Not Active | Not Active | – | – | – | – | – | – | – | – |
| C=CCn1c(=O)/c(=C/CCCCCCCCC)[nH]c(=O)/c1=C/c1ccc(OC)cc1 | – | – | – | Not Active | Not Active | Not Active | Not Active | Not Active | 10.3 µM | 11.7 µM | 5.3 µM | – | – | – | – | – |
| C=CCn1c(=O)/c(=C/CCCCCCCCCC)[nH]c(=O)/c1=C/c1ccccc1OC | Not Active | Not Active | Not Active | Not Active | Not Active | Not Active | Not Active | Not Active | – | – | – | – | – | – | – | – |
| C=CCn1c(=O)/c(=C/CCCCCCC)[nH]c(=O)/c1=C/c1cccc(OC)c1 | Not Active | Not Active | Not Active | Not Active | Not Active | Not Active | Not Active | Not Active | – | – | – | – | – | – | – | – |
| C=CCn1c(=O)/c(=C/CCCC)[nH]c(=O)/c1=C/c1ccccc1OC | – | – | – | – | – | – | – | – | 0.9 µM | 1.4 µM | 0.5 µM | 4 µM | 3.1 µM | 2.4 µM | 4.3 µM | 3.3 µM |
| C=CCn1c(=O)/c(=C/CCCCC)[nH]c(=O)/c1=C/c1ccc(OC)cc1 | – | – | Not Active | – | – | – | – | – | 0.5 µM | 0.7 µM | – | 1.9 µM | 2.3 µM | 1.1 µM | 2.1 µM | 1.7 µM |
| C=CCn1c(=O)/c(=C/CCCCC)[nH]c(=O)/c1=C/c1ccccc1OC | – | – | – | – | – | – | – | – | 1.9 µM | 2.6 µM | 13.4 µM | 8.7 µM | 6.9 µM | 5.7 µM | 10.7 µM | 7.4 µM |
| C=CCn1c(=O)/c(=C/CCCCCCCCCCC)[nH]c(=O)/c1=C/c1cccc(OC)c1 | Not Active | Not Active | Not Active | Not Active | Not Active | Not Active | Not Active | Not Active | – | – | – | – | – | – | – | – |
| C=CCn1c(=O)/c(=C/CC)[nH]c(=O)/c1=C/c1ccc(OC)cc1 | – | – | Not Active | – | – | – | – | – | 1.48 µM | 2.1 µM | – | 6.1 µM | 4.3 µM | 4.6 µM | 8.9 µM | 4.2 µM |
| C=CCn1c(=O)/c(=C/CCCCC)[nH]c(=O)/c1=C/c1cccc(OC)c1 | Not Active | Not Active | Not Active | Not Active | Not Active | Not Active | Not Active | Not Active | – | – | – | – | – | – | – | – |
| C=CCn1c(=O)/c(=C/CCCCCCCC)[nH]c(=O)/c1=C/c1ccc(OC)cc1 | – | – | – | – | – | – | – | – | 3.7 µM | 5.6 µM | 26.5 µM | 15.8 µM | 10.1 µM | 8.1 µM | 7.9 µM | 10.8 µM |
| C=CCn1c(=O)/c(=C/CCCCCCC)[nH]c(=O)/c1=C/c1ccc(OC)cc1 | – | – | – | – | – | – | – | – | 1.1 µM | 1.5 µM | 28.2 µM | 2.9 µM | 2.8 µM | 2.3 µM | 2.9 µM | 2.2 µM |
| C=CCn1c(=O)/c(=C/CCCCCCCC)[nH]c(=O)/c1=C/c1ccccc1OC | Not Active | Not Active | Not Active | Not Active | Not Active | Not Active | Not Active | Not Active | – | – | – | – | – | – | – | – |
| C=CCn1c(=O)/c(=C/CCCCCCCCCC)[nH]c(=O)/c1=C/c1ccc(OC)cc1 | Not Active | Not Active | Not Active | Not Active | Not Active | Not Active | Not Active | Not Active | – | – | – | – | – | – | – | – |
| C=CCn1c(=O)/c(=C/CC)[nH]c(=O)/c1=C/c1ccccc1OC | Not Active | Not Active | Not Active | Not Active | Not Active | Not Active | Not Active | Not Active | – | – | – | – | – | – | – | – |
| C=CCn1c(=O)/c(=C/CCC)[nH]c(=O)/c1=C/c1cccc(OC)c1 | Not Active | Not Active | Not Active | Not Active | Not Active | Not Active | Not Active | Not Active | – | – | – | – | – | – | – | – |
| C=CCn1c(=O)/c(=C/CCCCCCCCC)[nH]c(=O)/c1=C/c1ccccc1OC | – | – | – | Not Active | Not Active | Not Active | Not Active | Not Active | 18.8 µM | 10.4 µM | 3.4 µM | – | – | – | – | – |
| C=CCn1c(=O)/c(=C/CCCCCCCC)[nH]c(=O)/c1=C/c1cccc(OC)c1 | Not Active | Not Active | Not Active | Not Active | Not Active | Not Active | Not Active | Not Active | – | – | – | – | – | – | – | – |
| C=CCn1c(=O)/c(=C/CCCCCC)[nH]c(=O)/c1=C/c1cccc(OC)c1 | Not Active | Not Active | Not Active | Not Active | Not Active | Not Active | Not Active | Not Active | – | – | – | – | – | – | – | – |
| C=CCn1c(=O)/c(=C/CCCCCCCCC)[nH]c(=O)/c1=C/c1cccc(OC)c1 | Not Active | Not Active | Not Active | Not Active | Not Active | Not Active | Not Active | Not Active | – | – | – | – | – | – | – | – |
| C=CCn1c(=O)/c(=C/CCCCCCCCCCC)[nH]c(=O)/c1=C/c1ccc(OC)cc1 | Not Active | Not Active | Not Active | Not Active | Not Active | Not Active | Not Active | Not Active | – | – | – | – | – | – | – | – |
| C=CCn1c(=O)/c(=C/CCCCCC)[nH]c(=O)/c1=C/c1ccc(OC)cc1 | – | – | – | – | – | – | – | – | 0.6 µM | 0.9 µM | 3.4 µM | 2 µM | 2.4 µM | 1.6 µM | 2.2 µM | 1.6 µM |
| C=CCn1c(=O)/c(=C/CCCCCCCCCCCCCCC)[nH]c(=O)/c1=C/c1cccc(OC)c1 | Not Active | Not Active | Not Active | Not Active | Not Active | Not Active | Not Active | Not Active | – | – | – | – | – | – | – | – |
